Measured values from US20240390369A1, “METHODS FOR DETERMINING RESPONSIVENESS TO TYK2 INHIBITORS” (Bristol-Myers Squibb Company, priority 2021, published 2024).

Tested on: patients with psoriatic arthritis
Assay: Phase 2 trial in psoriatic arthritis: PASI75 response at week 16
Format: in vivo, human
Settings: for Odds Ratio for PASI75 response / Odds Ratio (OR) for PASI75 response / Interaction Term for PASI75 response (ratio of odds ratios): week 16
Experimental: In a double-blind Phase 2 trial, 203 patients with psoriatic arthritis were randomized into three groups: deucravacitinib 6 mg once daily (N=70), deucravacitinib 12 mg once daily (N=67), or placebo (N=66). All subjects had active psoriatic arthritis according to the Classification Criteria for Psoriatic Arthritis (CASPAR); for active disease, these criteria required ≥3 tender joint count, ≥3 swollen joint count, and a C-reactive protein level above 3 mg/L. Other inclusion criteria included the following: presence of at least one plaque psoriasis lesion, and prior treatment failure with a non-biologic disease modifying anti-rheumatic drug, a non-steroidal anti-inflammatory drug, or a steroid. With respect to treatment history, approximately 70% of subjects had not received prior treatment with a biologic and were biologic naïve, while up to 30% of subjects had failed or had been intolerant to one TNF-inhibitor (TNF=Tumor necrosis factor, also known as TNFα). Randomization was stratified by prior TNF-inhibitor use (experienced/naïve) and body weight (<90 kg and ≥90 kg).
Clinical measures included the Psoriasis […] (PASI) score for skin psoriasis, American College of Rheumatology 20 (ACR20) response, Psoriatic Arthritis Disease Activity Score (PASDAS), Health Assessment Questionnaire-Disability Index (HAQ-DI), and Disease Activity Score 28 CRP (DAS28). To evaluate the predictive value of different protein measurements for the clinical response to deucravacitinib, baseline protein concentrations for responders and non-responders, as defined by ACR20 or PASI75 at week 16, were compared for each arm (placebo, 6 mg deucravacitinib once-daily, and 12 mg deucravacitinib once-daily).
In addition, a logistic regression model was fit, to determine whether baseline disease score (dichotomized by the median baseline score, into baseline score high and baseline score low groups) was associated with response status. The model generated an odds ratio for each dosed arm versus placebo, in baseline score high and baseline score low groups.
Boxplots for baseline protein level by response were generated with a horizontal line indicating the median protein level at baseline. For each treatment arm, a two-sample t-test was performed to test whether mean baseline serum protein level was different in responders versus non-responders. A Wilcoxon rank sum test (Mann-Whitney U test) was also performed to evaluate the difference in median serum protein level between responders and non-responders. Further, barplots of ACR20 and PASI75 response rate at week 16 for each treatment arm were generated for all subjects (protein level high and protein level low subjects, dichotomized according to median baseline level). Line plots of ACR20 and PASI75 response rate over time for each treatment arm were generated for protein level high and protein level low groups. Logistic regression models were also fit to evaluate associations between baseline protein levels and clinical outcome.
For certain analyses described herein, patients were dichotomized by median values (e.g., of the proteins listed above or other measures) into “high” and “low” groups, such that the high group had values above the median and the low group had values less than or equal to the median.
In addition, logistic regression models were fit for response measures ACR20 and PASI75, to generate the odds ratio of each of the deucravacitinib treatment arms versus placebo, in BD2-high and BD2-low groups. The following logistic regression models were used: • For ACR20 response status: ACR20 (Y/N)=treatment arm+BD2 group+treatment arm*BD2 group+TNF-inhibitor use+baseline weight (continuous). • For PASI75 response status: PASI75 (Y/N)=treatment arm+BD2 group+treatment arm*BD2 group+TNF-inhibitor use+baseline weight (continuous). […]

[2H]C([2H])([2H])NC(=O)c1nnc(NC(=O)C2CC2)cc1Nc1cccc(-c2ncn(C)n2)c1OC [deucravacitinib, 6-(cyclopropanecarboxamido)-4-((2-methoxy-3-(1-methyl-1H-1,2,4-triazol-3-yl)phenyl)amino)-N-(methyl-d3)pyridazine-3-carboxamide]
Odds Ratio, PASI75 response status (CRP-high-PASI-high, 12 mg QD vs placebo): 17.226
Odds Ratio, PASI75 response status (CRP-high-PASI-low, 6 mg QD vs placebo): 0.710
Odds Ratio, PASI75 response status (CRP-high-PASI-low, 12 mg QD vs placebo): 5.115
Odds Ratio, PASI75 response status (CRP-high, 6 mg QD vs placebo, adjusted for baseline PASI score): 3.82
Odds Ratio, PASI75 response status (CRP-high, 12 mg QD vs placebo, adjusted for baseline PASI score): 12.05
Odds Ratio, PASI75 response status (CRP-low-PASI-high, 6 mg QD vs placebo): 2.470
Odds Ratio, PASI75 response status (CRP-low-PASI-high, 12 mg QD vs placebo): 16.368
Odds Ratio, PASI75 response status (CRP-low-PASI-low, 6 mg QD vs placebo): 1.866
Odds Ratio, PASI75 response status (CRP-low-PASI-low, 12 mg QD vs placebo): 1.197
Odds Ratio, PASI75 response status (CRP-low, 6 mg QD vs placebo, adjusted for baseline PASI score): 2.29
Odds Ratio, PASI75 response status (CRP-low, 12 mg QD vs placebo, adjusted for baseline PASI score): 3.79
Odds Ratio for PASI75 response (IL-17A high (baseline above median 0.575 ng/L), 6 mg QD vs placebo): 12.643
Odds Ratio for PASI75 response (IL-17A high (baseline above median 0.575 ng/L), 12 mg QD vs placebo): 20.916
PASI75 response rate at week 16 (IL-17A high group, 6 mg QD and 12 mg QD vs placebo (FIG. 21)): higher in both 6 mg QD and 12 mg QD treatment arms compared to placebo
Odds Ratio, PASI75 response status (IL-17A high-PASI high, 6 mg QD vs placebo): 12.355
Odds Ratio, PASI75 response status (IL-17A high-PASI high, 12 mg QD vs placebo): 15.937
Odds Ratio, PASI75 response status (IL-17A high-PASI low, 6 mg QD vs placebo): 13.247
Odds Ratio, PASI75 response status (IL-17A high-PASI low, 12 mg QD vs placebo): 30.955
Odds Ratio, PASI75 response status (IL-17A high, 6 mg QD vs placebo, adjusted for baseline PASI score): 13.452
Odds Ratio, PASI75 response status (IL-17A high, 12 mg QD vs placebo, adjusted for baseline PASI score): 23.963
Odds Ratio for PASI75 response (IL-17A high, treatment arms combined vs placebo): 15.763
Odds Ratio, PASI75 response status (IL-17A low-PASI high, 6 mg QD vs placebo): 3.005
Odds Ratio, PASI75 response status (IL-17A low-PASI high, 12 mg QD vs placebo): 20.919
Odds Ratio, PASI75 response status (IL-17A low-PASI low, 6 mg QD vs placebo): 0.188
Odds Ratio, PASI75 response status (IL-17A low-PASI low, 12 mg QD vs placebo): 0.415
Odds Ratio, PASI75 response status (IL-17A low, 6 mg QD vs placebo, adjusted for baseline PASI score): 0.588
Odds Ratio for PASI75 response (IL-17A low, 6 mg QD vs placebo): 0.553
Odds Ratio, PASI75 response status (IL-17A low, 12 mg QD vs placebo, adjusted for baseline PASI score): 1.812
Odds Ratio for PASI75 response (IL-17A low, 12 mg QD vs placebo): 1.730
Odds Ratio for PASI75 response (IL-17A low, treatment arms combined vs placebo): 1.014
PASI75 response rate at week 16 (IL-19-high group, 6 mg QD and 12 mg QD vs placebo arm (FIG. 14)): higher in both 6 mg QD and 12 mg QD treatment arms compared to the response rate in the placebo arm
Odds Ratio (OR) for PASI75 response (IL-19-low-PASI high, 6 mg QD vs placebo): 1.244
Odds Ratio (OR) for PASI75 response (IL-19-low-PASI high, 12 mg QD vs placebo): 2.845
Odds Ratio (OR) for PASI75 response (IL-19-low-PASI low, 6 mg QD vs placebo): 0.321
Odds Ratio (OR) for PASI75 response (IL-19-low-PASI low, 12 mg QD vs placebo): 0.380
Odds Ratio (OR) for PASI75 response (IL-19 low, 6 mg QD vs placebo): 0.443
Odds Ratio (OR) for PASI75 response (IL-19 low, 12 mg QD vs placebo): 0.842
Odds Ratio for PASI75 response (IL-19 low, treatment arms combined vs placebo): 6.284
Interaction Term for PASI75 response (ratio of odds ratios) (adjusted for baseline PASI score, 6 mg QD vs placebo: BD2-high versus BD2-low): 13.742
Interaction Term for PASI75 response (ratio of odds ratios) (adjusted for baseline PASI score, 12 mg QD vs placebo: BD2-high versus BD2-low): 19.455
Odds Ratio for PASI75 response (adjusted for baseline PASI score, All patients, 6 mg QD vs placebo): 3.052
Odds Ratio for PASI75 response (adjusted for baseline PASI score, All patients, 12 mg QD vs placebo): 6.494
Odds Ratio for PASI75 response (adjusted for baseline PASI score, BD2-high, 6 mg QD vs placebo): 13.559
Odds Ratio for PASI75 response (adjusted for baseline PASI score, BD2-high, 12 mg QD vs placebo): 34.074
Odds Ratio for PASI75 response (adjusted for baseline PASI score, BD2-low, 6 mg QD vs placebo): 0.987
Odds Ratio for PASI75 response (adjusted for baseline PASI score, BD2-low, 12 mg QD vs placebo): 1.751
Odds Ratio (OR) for PASI75 response (adjusted for baseline PASI score, IL-19 low, 6 mg QD vs placebo): 0.476
Odds Ratio (OR) for PASI75 response (adjusted for baseline PASI score, IL-19 low, 12 mg QD vs placebo): 0.896
PASI75 response rate at week 16 (both CRP-high and CRP-low groups, 6 mg, 12 mg, placebo arms (FIG. 38)): the response rate was higher in the 6 mg deucravacitinib treatment arm than in the placebo arm, and the response rate was even higher in the 12 mg deucravacitinib treatment arm than in the 6 mg treatment arm
Interaction Term for PASI75 response (ratio of odds ratios) (treatment arms combined vs placebo: BD2 high versus BD2 low): 12.100
Interaction Term: treatment arm*CRP group, PASI75 (treatment arms combined vs placebo: CRP high versus CRP low): 1.903
Interaction Term for PASI75 response (ratio of odds ratios) (treatment arms combined vs placebo: IL-17A high versus IL-17A low): 15.541
